The source made the active and inactive calls.

Data on 9 compounds can be found in ChEMBL document CHEMBL1201862, “PubChem BioAssay data set” (2004).

The target in assay [1] is T1, Calpain-2 catalytic subunit (Sus scrofa, UniProt P43367).
T1 sequence (P43367 whole entry): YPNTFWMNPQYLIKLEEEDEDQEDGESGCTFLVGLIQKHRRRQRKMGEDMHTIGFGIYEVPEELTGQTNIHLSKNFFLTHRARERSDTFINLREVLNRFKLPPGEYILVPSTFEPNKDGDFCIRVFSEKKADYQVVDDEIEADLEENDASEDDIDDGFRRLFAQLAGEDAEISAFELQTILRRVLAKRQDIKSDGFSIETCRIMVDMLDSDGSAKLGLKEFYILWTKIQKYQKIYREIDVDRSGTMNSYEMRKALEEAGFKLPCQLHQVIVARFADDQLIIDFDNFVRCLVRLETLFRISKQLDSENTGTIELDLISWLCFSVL
The assay is described as follows: pig calpain II inhibitor potency, dose response, biochemical, fluorogenic peptide substrate (AID 1420). It counts as functional.

The target in assay [2] is Intestinal-type alkaline phosphatase (Mus musculus, UniProt P24822). Description: PubChem AID 488785. It counts as functional.
The target of assay [3] is T2, Alkaline phosphatase, tissue-nonspecific isozyme (Homo sapiens, UniProt P05186).
T2 sequence (P05186 whole entry): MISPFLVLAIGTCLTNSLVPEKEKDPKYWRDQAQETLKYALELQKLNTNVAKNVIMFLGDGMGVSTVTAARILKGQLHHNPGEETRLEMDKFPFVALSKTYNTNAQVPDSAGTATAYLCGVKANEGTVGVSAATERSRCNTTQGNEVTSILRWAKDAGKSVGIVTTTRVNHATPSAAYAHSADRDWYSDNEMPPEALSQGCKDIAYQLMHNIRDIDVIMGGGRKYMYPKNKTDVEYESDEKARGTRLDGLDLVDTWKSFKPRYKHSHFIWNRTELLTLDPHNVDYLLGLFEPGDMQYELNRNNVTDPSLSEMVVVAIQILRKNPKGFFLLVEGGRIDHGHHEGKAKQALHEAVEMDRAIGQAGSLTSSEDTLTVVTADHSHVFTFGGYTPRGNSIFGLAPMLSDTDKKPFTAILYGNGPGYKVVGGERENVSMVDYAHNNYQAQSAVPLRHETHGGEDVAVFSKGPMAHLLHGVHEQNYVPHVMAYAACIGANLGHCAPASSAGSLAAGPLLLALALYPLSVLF
Description: TNAP enzyme inhibition by screening hits, dose response, selectivity assay for mouse IAP inhibitor project, biochemical, human TNAP, uHTS hits (AID 488906). In kind it is functional.

The target of assay [4] is Intestinal-type alkaline phosphatase (Homo sapiens, UniProt P09923). Description: inhibition of human intestinal alkaline phosphatase – biochemical, dose response (AID 488876). It counts as functional.
Assay [5] addresses Sphingosine 1-phosphate receptor 1 (Homo sapiens, UniProt P21453). Description: Fluorescence-based counterscreen assay for S1P4 agonists: Cell-based dose response high throughput screening assay to identify agonists of the Sphingosine 1-Phosphate Receptor 1 (S1P1). [Related pubchem assays (depositor defined):AID1509, AID1523, AID1801, AID463107, AID463118, AID463119, AID463122, AID463123, AID463129, AID463225, AID504400, AID504460]. It counts as functional.

Assay [6] deals with Streptococcus sp. 'group A'. Description: growth inhibition of control SK(-) GAS strain, dose response, counter-screen for streptokinase expression inhibitor project, luminescence, kanamycin, BacTiterGlo, confirmation (AID 1900). It counts as functional, organism-based. A general note: Counterscreens check selectivity or assay interference.
Assay [7] deals with T3, Streptokinase A (Streptococcus pyogenes serotype M1, UniProt P10520).
T3 sequence (P10520 whole entry): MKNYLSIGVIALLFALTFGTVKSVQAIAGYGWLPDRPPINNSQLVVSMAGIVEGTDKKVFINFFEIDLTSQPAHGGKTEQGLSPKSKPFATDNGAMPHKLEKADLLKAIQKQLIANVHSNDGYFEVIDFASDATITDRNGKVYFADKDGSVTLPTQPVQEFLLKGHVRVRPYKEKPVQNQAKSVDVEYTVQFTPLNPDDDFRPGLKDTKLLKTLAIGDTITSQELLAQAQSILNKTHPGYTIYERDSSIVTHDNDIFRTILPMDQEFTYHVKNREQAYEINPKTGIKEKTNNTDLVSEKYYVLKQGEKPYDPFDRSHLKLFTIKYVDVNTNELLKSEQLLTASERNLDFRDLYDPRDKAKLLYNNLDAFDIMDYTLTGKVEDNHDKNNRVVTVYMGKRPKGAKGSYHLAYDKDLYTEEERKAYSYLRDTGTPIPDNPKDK
Description: S. pyogenes streptokinase expression inhibitors, potency, dose response, plasminogen activation absorbance, OD405 (AID 1914).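 Also: secreted streptokinase activity via plasminogen activation per viability signal from cell pellet.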 It counts as functional, Streptococcus pyogenes M1 GAS.

Assay [8] concerns the target T4, Sphingosine 1-phosphate receptor 4 (Homo sapiens, UniProt O95977).
T4 sequence (O95977 whole entry): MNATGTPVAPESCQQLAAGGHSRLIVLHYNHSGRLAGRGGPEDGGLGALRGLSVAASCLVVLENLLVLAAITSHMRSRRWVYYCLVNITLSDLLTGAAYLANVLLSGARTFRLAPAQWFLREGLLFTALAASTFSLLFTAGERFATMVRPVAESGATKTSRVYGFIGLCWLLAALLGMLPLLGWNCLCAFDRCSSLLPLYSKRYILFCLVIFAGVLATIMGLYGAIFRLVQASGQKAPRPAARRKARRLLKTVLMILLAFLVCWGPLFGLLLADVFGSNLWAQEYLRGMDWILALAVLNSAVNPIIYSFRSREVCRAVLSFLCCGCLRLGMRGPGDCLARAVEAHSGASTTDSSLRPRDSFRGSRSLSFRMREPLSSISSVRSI
The assay is described as follows: Fluorescence dose response cell-based high throughput screening assay for agonists of the Sphingosine 1-Phosphate Receptor 4 (S1P4). [Related pubchem assays: 1509 (Primary screen.), 1523 (Confirmation screen in triplicates.)]. In kind it is functional.

Assay [9] can be described thus: growth suppression of PTEN-null colon cells, dose response, cell-based, HCT116 PTEN knockout (AID 1047).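 Also: HCT116 colon tumor cells with PTEN knocked out; cells exposed to compound for 60 hours before readout; potency for loss of cell viability measured by luminescence.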 It counts as functional.
Assay [10] in a line: growth suppression of beta-catenin-knockout colon cells, dose response, cell-based, HCT116, human colon tumor (AID 1045).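 Also: HCT116 colon tumor cells with beta catenin knocked out; cells exposed to compound for 60 hours.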 It counts as functional.
The subject of assay [11] is Streptococcus. The assay is described as follows: Group A Streptococcus viability loss, dose response, counter-screen for streptokinase expression inhibitor project, luminescence, BacTiterGlo (AID 1915).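 Also: potency for reduction of bacterial viability or growth.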 In kind it is functional, organism-based.
Assay [12] has as its target Sphingosine 1-phosphate receptor 2 (Homo sapiens, UniProt O95136). Description: Dose Response Cell Based Assay for Agonists of the S1P2 Receptor. [Related pubchem assays: 729, 736, 843 ]. It counts as functional.
The target of assay [13] is Neurotensin receptor type 1 (Homo sapiens, UniProt P30989). In kind it is functional.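 Also: Image-based confirmatory dose-response assay measuring agonist activity at NTR1; NTR1-expressing U2OS osteosarcoma cells imaged for beta-arrestin GFP spot formation; agonist potency where compounds increase beta-arrestin recruitment.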
For assay [14], the system named is Vero. The assay is described as follows: cells. It counts as functional. The conditions noted are these: Chlorocebus sabaeus.
In assay [15] the target is T5, Protein Tat (Human immunodeficiency virus type 1 group M subtype B (isolate HXB2)(HIV-1), UniProt P04608).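 Also: tat binding to TAR RNA read out by fluorescence polarization.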
T5 sequence (P04608 whole entry): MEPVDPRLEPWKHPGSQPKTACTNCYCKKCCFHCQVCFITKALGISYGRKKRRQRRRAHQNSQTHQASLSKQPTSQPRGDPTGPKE
In kind it is functional.

A short description of assay [16]: Vero cell cytotoxicity, dose response, cytotoxicity control for Vif-APOBEC3G degradation inhibitor project, Vero cells (AID 1117358). In kind it is functional. To be noted: Human immunodeficiency virus 1, Vero.
For assay [17], the target named is Potassium voltage-gated channel subfamily KQT member 2 (Rattus norvegicus, UniProt O88943). The assay is described as follows: KCNQ2 channel activators, analog series, SAR follow-up, automated patch clamp, KCNQ2-CHO cells (AID 493113). In kind it is functional. On the technique in general: In patch-clamp work, channel activity is measured electrically.
Assay [18] has as its system Jurkat. Description: antigen receptor-induced NF-kB inhibitors, dose response, Jurkat, luciferase reporter, luminescence, B- and T-cell (AID 489004).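 Also: NF-kB luciferase reporter Jurkat cells stimulated with PMA plus ionomycin.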 The conditions noted are these: Homo sapiens. It counts as functional, cell-based.
Assay [19] is described as follows: cytotoxicity in HEK-293T NF-kB-Luc cells, dose response, cytotoxicity control for B/T-cell NF-kB inhibitor project, cell-based, uHTS hits (AID 489019).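 Also: IC50 reflects cytotoxicity as loss of cell viability.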 It counts as functional.
Assay [20] can be described thus: inhibitors of intracellular T. cruzi replication, confirmation, NIH3T3 host cells, beta-gal luminescence (AID 2044).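 Also: intracellular parasites grown in NIH/3T3 mouse fibroblasts as host cells; luminescent beta-galactosidase reporter signal from transgenic T. cruzi replicating inside host cells; inhibitors lower the luminescence signal.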 In kind it is functional, cell-based.
Assay [21] is described as follows: cytotoxicity toward NIH3T3 fibroblasts, dose response, counter-screen, cell-based, ATP luminescence, mouse fibroblasts (AID 2010).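 Also: cells exposed to compound for about 90 hours before reading.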 It counts as functional.
Assay [22] has as its target Beta-galactosidase (Escherichia coli, UniProt Q8VNN2). Description: beta-galactosidase enzyme inhibitors and activators, dose response, artefact control for CCR6 antagonist project, biochemical, E. coli enzyme, set 3 (AID 504712). In kind it is functional.
The target of assay [23] is Apelin receptor (Homo sapiens, UniProt P35414). The assay is described as follows: APJ beta-arrestin recruitment antagonism, SAR follow-up, selectivity assay for CCR6 antagonist project, cell-based, luminescent, enzyme-fragment complementation (AID 588359). In kind it is functional.
Assay [24] addresses Voltage-dependent T-type calcium channel subunit alpha-1H (Homo sapiens, UniProt O95180). Description: Cav3.2 T-type channel blockers, cell-based, SynthLib3 library, HEK293 Cav3.2, fluorescence (AID 493041). It counts as functional.
Assay [25] in a line: Luminescence Cell-Based Dose Retest to Confirm Inhibitors of Cancer Stem Cells. [Related pubchem assays (depositor defined):AID2717, AID2721]. It counts as functional. The conditions noted are these: Homo sapiens.
The nature of assay [26]: cytotoxicity in HMLE control line with eGFP shRNA, dose response, counter-screen for HMLE_sh_ECad selective toxicity project, cell-based, HMLE_sh_eGFP, luminescence (AID 463074).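 Also: HMLE human mammary epithelial cells expressing control shRNA against eGFP.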 It counts as functional, Homo sapiens.
Assay [27] relates to HEK293. The assay is described as follows: cells. To be noted: Homo sapiens.
Assay [28] has as its system HEK293. The assay is described as follows: cells. To be noted: Homo sapiens. The source holds these as a separate data set.
Assay [29] can be described thus: cytotoxicity in HEK-293T cells, dose response, cytotoxicity control for BCR NF-kB inhibitor project, luminescence, B-cell screen hits (AID 489021).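 Also: HEK-293T cells carrying an NF-kB luciferase reporter; cells exposed to compound for about 14 hours before viability readout.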 It counts as functional, cell-based.
Assay [30] deals with Jurkat. Description: SAR Analysis of small molecule inhibitors of […] specific antigen receptor-induced NF-kB activation in a Jurkat cell line using a luminescence assay - Set 3. [Related pubchem assays (depositor defined):AID435022, AID435025, AID465]. In kind it is functional, cell-based. To be noted: Homo sapiens.
In assay [31] the test system is HEK293. The assay is described as follows: SAR Analysis of small molecule inhibitors of B-cell specific antigen receptor-induced NF-kB activation in a HEK-293T cell line using a luminescence assay - Set 2. [Related pubchem assays (depositor defined):AID435022, AID435025, AID489021]. It counts as functional, cell-based. To be noted: Homo sapiens.
Assay [32] deals with HEK293. Description: cytotoxicity in HEK293T NF-kB-Luc cells, SAR follow-up, cytotoxicity control for NF-kB activator project, cell-based, resazurin fluorescence (AID 493251). It counts as functional. The conditions noted are these: Homo sapiens, HEK293. On the technique in general: Alamar Blue is a resazurin reagent that responds to reducing activity.

Sequence of Beta-galactosidase (Q8VNN2 whole entry, the tested form may be a part): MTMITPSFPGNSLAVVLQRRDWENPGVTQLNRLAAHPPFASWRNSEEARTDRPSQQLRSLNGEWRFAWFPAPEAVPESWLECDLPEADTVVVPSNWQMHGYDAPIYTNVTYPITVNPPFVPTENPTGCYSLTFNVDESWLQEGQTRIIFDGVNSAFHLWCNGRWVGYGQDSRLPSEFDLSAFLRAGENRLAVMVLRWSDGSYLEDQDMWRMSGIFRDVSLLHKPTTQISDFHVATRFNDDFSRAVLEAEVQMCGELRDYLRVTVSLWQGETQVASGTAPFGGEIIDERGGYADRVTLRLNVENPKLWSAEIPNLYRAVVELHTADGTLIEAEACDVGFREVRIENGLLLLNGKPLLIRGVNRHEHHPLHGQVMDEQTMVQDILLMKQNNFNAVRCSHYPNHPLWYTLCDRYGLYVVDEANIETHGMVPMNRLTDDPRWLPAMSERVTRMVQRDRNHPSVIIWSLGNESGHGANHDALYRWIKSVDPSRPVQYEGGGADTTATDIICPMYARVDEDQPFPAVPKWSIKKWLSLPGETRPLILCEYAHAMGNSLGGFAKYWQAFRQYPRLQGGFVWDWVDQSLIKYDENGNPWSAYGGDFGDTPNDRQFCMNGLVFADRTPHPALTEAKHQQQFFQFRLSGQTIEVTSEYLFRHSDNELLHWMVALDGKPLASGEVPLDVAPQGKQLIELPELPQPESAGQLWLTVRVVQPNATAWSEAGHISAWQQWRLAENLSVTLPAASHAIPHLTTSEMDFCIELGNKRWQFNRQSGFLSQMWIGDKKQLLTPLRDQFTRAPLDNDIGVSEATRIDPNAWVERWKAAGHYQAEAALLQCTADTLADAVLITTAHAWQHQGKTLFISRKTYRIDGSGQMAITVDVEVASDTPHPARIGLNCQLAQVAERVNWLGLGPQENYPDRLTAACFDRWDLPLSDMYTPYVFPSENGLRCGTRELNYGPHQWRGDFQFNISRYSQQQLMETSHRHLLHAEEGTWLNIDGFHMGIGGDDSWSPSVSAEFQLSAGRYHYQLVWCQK
Sequence of Sphingosine 1-phosphate receptor 1 (P21453 whole entry): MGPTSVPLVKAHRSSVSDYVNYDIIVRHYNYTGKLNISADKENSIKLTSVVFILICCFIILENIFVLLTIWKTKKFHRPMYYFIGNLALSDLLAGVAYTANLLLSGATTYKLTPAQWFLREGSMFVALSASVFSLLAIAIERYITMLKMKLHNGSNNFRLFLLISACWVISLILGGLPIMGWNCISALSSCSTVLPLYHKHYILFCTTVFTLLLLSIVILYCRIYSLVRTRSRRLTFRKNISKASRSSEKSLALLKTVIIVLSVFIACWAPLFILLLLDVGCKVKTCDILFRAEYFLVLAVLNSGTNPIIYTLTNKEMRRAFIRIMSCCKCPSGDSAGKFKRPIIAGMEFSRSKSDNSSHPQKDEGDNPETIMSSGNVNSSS
Sequence of Sphingosine 1-phosphate receptor 2 (O95136 whole entry): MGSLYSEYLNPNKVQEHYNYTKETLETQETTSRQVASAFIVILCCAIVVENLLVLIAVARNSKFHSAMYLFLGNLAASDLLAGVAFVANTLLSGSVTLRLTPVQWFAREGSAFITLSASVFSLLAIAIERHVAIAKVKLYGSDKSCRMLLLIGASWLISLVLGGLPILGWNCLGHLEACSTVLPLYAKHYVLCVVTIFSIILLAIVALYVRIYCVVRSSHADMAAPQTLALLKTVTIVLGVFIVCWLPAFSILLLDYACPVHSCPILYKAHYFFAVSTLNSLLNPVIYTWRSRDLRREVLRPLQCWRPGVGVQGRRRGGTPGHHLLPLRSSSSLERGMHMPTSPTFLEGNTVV
Sequence of Apelin receptor (P35414 whole entry, the tested form may be a part): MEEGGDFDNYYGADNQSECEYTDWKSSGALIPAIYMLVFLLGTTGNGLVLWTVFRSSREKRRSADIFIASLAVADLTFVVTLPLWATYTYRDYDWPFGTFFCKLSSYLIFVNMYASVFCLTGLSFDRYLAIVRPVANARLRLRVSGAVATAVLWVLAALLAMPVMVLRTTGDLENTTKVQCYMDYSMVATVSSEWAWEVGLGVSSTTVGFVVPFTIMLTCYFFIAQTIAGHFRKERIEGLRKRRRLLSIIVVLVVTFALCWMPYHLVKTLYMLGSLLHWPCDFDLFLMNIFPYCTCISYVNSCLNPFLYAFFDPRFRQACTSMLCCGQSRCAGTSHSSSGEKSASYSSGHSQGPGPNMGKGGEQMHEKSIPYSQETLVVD
Sequence of Potassium voltage-gated channel subfamily KQT member 2 (O88943 whole entry): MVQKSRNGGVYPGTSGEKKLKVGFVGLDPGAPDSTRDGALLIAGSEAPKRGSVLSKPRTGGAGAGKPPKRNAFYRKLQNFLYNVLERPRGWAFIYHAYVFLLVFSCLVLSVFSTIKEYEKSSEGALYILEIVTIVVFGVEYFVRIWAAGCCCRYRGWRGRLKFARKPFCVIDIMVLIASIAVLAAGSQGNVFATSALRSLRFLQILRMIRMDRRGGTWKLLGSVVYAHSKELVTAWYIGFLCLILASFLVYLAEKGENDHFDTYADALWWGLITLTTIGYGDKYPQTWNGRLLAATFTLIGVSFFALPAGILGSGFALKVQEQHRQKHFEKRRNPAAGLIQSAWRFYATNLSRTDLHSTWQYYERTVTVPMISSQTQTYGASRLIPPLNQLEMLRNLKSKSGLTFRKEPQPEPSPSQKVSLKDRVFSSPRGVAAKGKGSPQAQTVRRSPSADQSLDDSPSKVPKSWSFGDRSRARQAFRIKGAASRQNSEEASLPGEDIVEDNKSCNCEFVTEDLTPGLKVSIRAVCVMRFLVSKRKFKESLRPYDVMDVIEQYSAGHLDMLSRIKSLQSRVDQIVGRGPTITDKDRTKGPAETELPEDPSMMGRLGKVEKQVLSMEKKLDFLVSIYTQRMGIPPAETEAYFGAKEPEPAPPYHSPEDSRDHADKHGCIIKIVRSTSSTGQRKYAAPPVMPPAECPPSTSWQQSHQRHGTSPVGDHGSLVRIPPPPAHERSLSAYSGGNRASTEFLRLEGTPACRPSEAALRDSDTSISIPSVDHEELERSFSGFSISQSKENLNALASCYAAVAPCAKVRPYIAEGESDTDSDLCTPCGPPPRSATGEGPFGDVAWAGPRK
Sequence of Intestinal-type alkaline phosphatase (Homo sapiens, UniProt P09923) (P09923 whole entry): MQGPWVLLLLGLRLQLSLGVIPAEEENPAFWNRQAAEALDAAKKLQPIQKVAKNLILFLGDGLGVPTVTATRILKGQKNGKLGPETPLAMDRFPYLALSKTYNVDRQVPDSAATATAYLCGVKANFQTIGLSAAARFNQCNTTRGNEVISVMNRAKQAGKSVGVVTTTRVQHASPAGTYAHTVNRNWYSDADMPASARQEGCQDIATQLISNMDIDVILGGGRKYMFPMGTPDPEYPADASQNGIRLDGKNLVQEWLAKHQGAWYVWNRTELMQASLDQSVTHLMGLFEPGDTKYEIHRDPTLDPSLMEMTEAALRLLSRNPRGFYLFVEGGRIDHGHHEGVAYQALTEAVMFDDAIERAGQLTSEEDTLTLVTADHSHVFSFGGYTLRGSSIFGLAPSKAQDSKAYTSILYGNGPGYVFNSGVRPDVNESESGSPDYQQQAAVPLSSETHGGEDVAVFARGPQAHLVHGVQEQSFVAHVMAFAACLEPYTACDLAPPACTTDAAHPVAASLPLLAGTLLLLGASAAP
Sequence of Intestinal-type alkaline phosphatase (Mus musculus, UniProt P24822) (P24822 whole entry): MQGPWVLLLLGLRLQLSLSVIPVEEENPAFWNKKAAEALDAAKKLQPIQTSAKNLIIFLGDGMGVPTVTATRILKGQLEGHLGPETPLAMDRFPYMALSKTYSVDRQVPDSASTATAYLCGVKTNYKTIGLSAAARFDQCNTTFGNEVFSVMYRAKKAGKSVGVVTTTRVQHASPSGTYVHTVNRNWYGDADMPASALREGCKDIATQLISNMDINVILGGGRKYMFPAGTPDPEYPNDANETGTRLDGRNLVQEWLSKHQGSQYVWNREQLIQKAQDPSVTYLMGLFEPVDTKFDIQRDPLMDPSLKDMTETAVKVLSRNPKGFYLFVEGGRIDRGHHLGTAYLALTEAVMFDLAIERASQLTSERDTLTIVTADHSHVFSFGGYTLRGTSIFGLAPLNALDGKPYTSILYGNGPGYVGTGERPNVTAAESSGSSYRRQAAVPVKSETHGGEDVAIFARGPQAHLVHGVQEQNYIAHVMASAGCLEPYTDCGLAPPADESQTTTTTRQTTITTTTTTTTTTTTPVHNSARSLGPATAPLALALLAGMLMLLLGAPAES
Sequence of Neurotensin receptor type 1 (P30989 whole entry): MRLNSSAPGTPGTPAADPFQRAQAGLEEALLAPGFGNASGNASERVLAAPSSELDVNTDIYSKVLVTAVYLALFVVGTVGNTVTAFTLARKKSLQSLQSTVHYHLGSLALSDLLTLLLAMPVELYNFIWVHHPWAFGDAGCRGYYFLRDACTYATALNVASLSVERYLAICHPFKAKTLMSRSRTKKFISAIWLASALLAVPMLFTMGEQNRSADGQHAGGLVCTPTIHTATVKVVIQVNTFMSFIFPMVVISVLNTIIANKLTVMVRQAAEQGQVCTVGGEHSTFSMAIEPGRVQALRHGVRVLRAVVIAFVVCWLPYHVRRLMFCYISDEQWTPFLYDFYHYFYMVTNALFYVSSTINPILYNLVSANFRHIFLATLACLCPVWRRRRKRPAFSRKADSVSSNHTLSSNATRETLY

As a reminder, the IC50 is the point on the concentration scale where inhibition reaches its midpoint. Turning to `O=C(Nc1ccc(Cl)cc1)NC1CCCCC1Cc1ccco1` (configuration not stated), the IC50 in [1] was 2.69 µM (not active); in assay [2], 12.2 µM (active); in [3], > 100 µM (inactive); in [4], > 100 µM (inactive).

In general, EC50 refers to the concentration that produces a half-maximal response. The term CC50 denotes the concentration that lowers cell viability or growth by half. On to `NS(=O)(=O)c1ccc(N2N=C(c3ccc(Br)cc3)CC2c2ccc(F)cc2)cc1` (configuration not stated), for which the half-maximal effective concentration (EC50) is 2.2 µM (active) in assay [5]; 2.62 µM (active) in [6]; > 150 µM (not active) in assay [7]; 3.33 µM (active) in assay [8]; 14.1 µM (active) in assay [9]; 15.4 µM (active) in [10]. Besides, the EC50 was 5.44 µM (active) in assay [11], 0.877 µM (active) in assay [12] and 25 µM (inactive) in [13]. Moreover, the cytotoxic concentration (CC50) in assay [14] is 17.1 µM (active); in assay [16], > 40 µM (active). Besides, the half-inhibitory concentration (IC50) in assay [15] was > 100 µM (active).

As to `Cc1ccc(NC(=O)C2CC3CCC2C3)c(C)c1` (configuration not stated), in [17], the 50% effective concentration (EC50) is 0.22 µM (active).

Consider `O=C(NCCNCCO)C1(C(F)(F)F)C/C(=C\CCO)CCCO1` (configuration not stated), for which the IC50 in [18] and in assay [19] was > 80 µM (inactive) throughout.

For the compound `O=C(CSc1cccc2cccnc12)Nc1ccc(S(=O)(=O)N2CCOCC2)cc1`, the 50% effective concentration (EC50) is 1.58 µM (active) in assay [20] and 7.88 µM (active) in assay [21]. Moreover, the IC50 in assay [22] is > 66.6 µM (inactive); in assay [23], 11 µM (active).

In the case of `O=C(NC1CCC2CN(CC3CCCC3)CC21)c1cc(Cl)cc(Cl)c1` (configuration not stated), the EC50 in [24] was 6.4 µM (active).

As usually defined, the AC50 is the concentration giving half of the maximal activity seen. Consider `COc1cc(-c2noc(C)c2C#Cc2ccc(N)cc2)cc(OC)c1OC`, for which the half-maximal activity concentration (AC50) in [25] was 0.219 µM (active); in assay [26], 8 µM (inconclusive).

Take `C=CCO/C(O)=C1\C(C)=NC(SCC(=O)Nc2nccs2)=C(C#N)C1c1ccc(Cl)cc1` (configuration not stated): the EC50 in assay [27] and in [28] was > 59.6 µM (inactive) in each case.

In the case of `CSc1ccc(-c2nc(CSCC(=O)NC3CC3)c(C)o2)cc1`, the IC50 in assay [29] is > 80 µM (inactive); in [30], > 80 µM (inactive); in assay [31], 49.7 µM (inactive); in [32], > 80 µM (inactive).
